In the supplement of paper PMC7840683:
± gives the standard deviation of the averaged measurements.

Test system: HepaRG
Experiment: LDH release cytotoxicity, % of total lysis control; higher = more cytotoxic
Conditions: 48 h
In short: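 HepaRG cells from a single lot were plated on collagen I-coated 96-well plates and treated in duplicate for 48 h with eight-point half-log series of test chemicals, starting at 100 µM, in serum-free induction medium containing 0.5% DMSO. Total lysis wells were given 0.1% Triton X. LDH released into 50 µL of spent medium was measured as resorufin fluorescence with CytoTox-ONE on a Tecan Safire. Percent cytotoxicity was normalized to on-plate vehicle and total lysis controls and then averaged across duplicates.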

CCCCNC(=O)OCC#CI [3-Iodo-2-propynyl-N-butylcarbamate]
Conditions | LDH release cytotoxicity [%]
0.0301998 µM | 3.83 ± 0.91
0.0955 µM | 4.17 ± 0.21
0.301997 µM | 4.24 ± 0.97
0.955 µM | 4.49 ± 0.11
3.01998 µM | 4.53 ± 0.06
9.55 µM | 4.22 ± 2
30.199752 µM | 19.6 ± 1.1
95.5 µM | 82.9 ± 2.8

O=[N+]([O-])c1ccc(O)c([N+](=O)[O-])c1 [2,4-Dinitrophenol]
Conditions | LDH release cytotoxicity [%]
0.03162 µM | -0.273 ± 0.077
0.1 µM | -1.23 ± 0.39
0.3162278 µM | -0.515 ± 0.069
1 µM | -1 ± 0.71
3.16228 µM | -0.876 ± 0.33
10 µM | 0.105 ± 0.71
31.6228 µM | 0.264 ± 0.47
100 µM | 0.252 ± 0.21

C#CC1(O)CCC2C3CCC4=CC(=O)CCC4C3CCC21CC (stereo unspecified) [Levonorgestrel]
Conditions | LDH release cytotoxicity [%]
0.03162 µM | -1.38 ± 1.4
0.1 µM | -1.25 ± 1.1
0.3162278 µM | -1.67 ± 1.2
1 µM | -1.92 ± 0.3
3.16228 µM | -1.95 ± 0.12
10 µM | -1.02 ± 0.035
31.6228 µM | -0.294 ± 1.1
100 µM | 0.81 ± 0.17

CCCCOC(=O)CCCCCCCCC(=O)OCCCC [Dibutyl decanedioate]
Conditions | LDH release cytotoxicity [%]
0.03162 µM | -1.01 ± 0.4
0.1 µM | -1.61 ± 0.65
0.3162278 µM | -1.81 ± 0.16
1 µM | -2.3 ± 0.41
3.16228 µM | -2.91 ± 0.79
10 µM | -1.92 ± 0.027
31.6228 µM | -1.43 ± 1
100 µM | 0.112 ± 0.92

CNC(=S)S [Metam-sodium hydrate]
Conditions | LDH release cytotoxicity [%]
0.03162 µM | -0.462 ± 0.042
0.1 µM | -0.61 ± 0.22
0.3162278 µM | -0.991 ± 0.45
1 µM | -1.25 ± 0.15
3.16228 µM | -0.486 ± 0.41
10 µM | -0.405 ± 0.015
31.6228 µM | -0.218 ± 0.1
100 µM | 1.15 ± 0.05

Nc1nc(Cl)nc2c1ncn2C1CC(O)C(CO)O1 (stereo unspecified) [Cladribine]
Conditions | LDH release cytotoxicity [%]
0.03162 µM | 1.26 ± 0.91
0.1 µM | 0.387 ± 1.1
0.3162278 µM | 1.42 ± 0.94
1 µM | 1.39 ± 0.35
3.16228 µM | 3.14 ± 0.5
10 µM | 7.59 ± 0.6
31.6228 µM | 10.9 ± 2
100 µM | 13.4 ± 1

CCC(C)C(=O)OC1CC(O)C=C2C=CC(C)C(CCC(O)CC(O)CC(=O)O)C21 (stereo unspecified) [Pravastatin sodium]
Conditions | LDH release cytotoxicity [%]
0.03162 µM | -0.512 ± 0.58
0.1 µM | -1.91 ± 0.093
0.3162278 µM | -0.491 ± 0.075
1 µM | -1.07 ± 0.62
3.16228 µM | -0.742 ± 0.055
10 µM | 0.11 ± 0.94
31.6228 µM | 0.155 ± 0.37
100 µM | 3.76 ± 0.56

O=C(O)COc1nc(Cl)c(Cl)cc1Cl [Triclopyr]
Conditions | LDH release cytotoxicity [%]
0.03162 µM | -0.728 ± 0.43
0.1 µM | -2.08 ± 0.22
0.3162278 µM | -1.59 ± 0.14
1 µM | -1.77 ± 0.51
3.16228 µM | -1.2 ± 0.3
10 µM | 0.578 ± 0.15
31.6228 µM | 34.7 ± 3.1
100 µM | 45.6 ± 2.5

Cc1ccccc1O [o-Cresol]
Conditions | LDH release cytotoxicity [%]
0.03162 µM | -1.5 ± 0.25
0.1 µM | -1.22 ± 0.88
0.3162278 µM | -1.45 ± 0.22
1 µM | -2.213 ± 0.0064
3.16228 µM | -1.71 ± 0.043
10 µM | -0.686 ± 0.64
31.6228 µM | -0.0502 ± 0.045
100 µM | 12.99 ± 0.038

CCCCN(CCCC)SN(C)C(=O)Oc1cccc2c1OC(C)(C)C2 [Carbosulfan]
Conditions | LDH release cytotoxicity [%]
0.03162 µM | -3.56 ± 2.3
0.1 µM | -0.722 ± 0.37
0.3162278 µM | -0.938 ± 0.067
1 µM | -0.712 ± 0.067
3.16228 µM | 0.429 ± 0.12
10 µM | 0.717 ± 0.68
31.6228 µM | -0.247 ± 0.45
100 µM | 0.466 ± 0.2

COc1ccc([N+](=O)[O-])cc1N [5-Nitro-o-anisidine]
Conditions | LDH release cytotoxicity [%]
0.03162 µM | 0.0404 ± 0.33
0.1 µM | -1.94 ± 0.095
0.3162278 µM | -1.36 ± 0.15
1 µM | -1.28 ± 0.27
3.16228 µM | -1.4 ± 0.22
10 µM | -1.25 ± 0.021
31.6228 µM | 0.0123 ± 0.15
100 µM | 0.941 ± 0.76

COP(=O)(OC)OC(Br)C(Cl)(Cl)Br (stereo unspecified) [Naled]
Conditions | LDH release cytotoxicity [%]
0.03162 µM | -2.18 ± 0.54
0.1 µM | -1.58 ± 0.07
0.3162278 µM | -1.53 ± 0.67
1 µM | -2.25 ± 0.69
3.16228 µM | -0.95 ± 0.64
10 µM | -1.19 ± 0.38
31.6228 µM | -0.943 ± 0.2
100 µM | -0.896 ± 0.77

Cn1c(-c2ccccc2)cc(-c2ccccc2)[n+]1C [Difenzoquat metilsulfate]
Conditions | LDH release cytotoxicity [%]
0.03162 µM | -4.98 ± 0.42
0.1 µM | -4.55 ± 0.57
0.3162278 µM | -3.76 ± 0.46
1 µM | -4.22 ± 0.43
3.16228 µM | -3.44 ± 0.93
10 µM | -3.6 ± 0.33
31.6228 µM | -2.99 ± 2
100 µM | -1.18 ± 0.17

CCOC(=O)OC(C)OC(=O)c1ccc2c(c1)cc(C(=O)NC1CCN(C(C)C)CC1)n2Cc1cc(-c2ccc(Cl)s2)on1 (stereo unspecified) [AVE6324]
Conditions | LDH release cytotoxicity [%]
0.02988 µM | -0.39 ± 1.6
0.0945 µM | -0.573 ± 0.22
0.298835 µM | -0.553 ± 1.2
0.945 µM | -1.09 ± 0.69
2.98835 µM | -0.186 ± 0.77
9.45 µM | 1.15 ± 0.64
29.8835 µM | 1.55 ± 1.8
94.5 µM | 48.4 ± 7.1

CCCN(CCOc1c(Cl)cc(Cl)cc1Cl)C(=O)n1ccnc1 [Prochloraz]
Conditions | LDH release cytotoxicity [%]
0.031623 µM | 0.136 ± 1.1
0.1 µM | -2.541 ± 0.013
0.316228 µM | -3.11 ± 1.4
1 µM | -2.56 ± 0.4
3.16228 µM | -0.716 ± 0.26
10 µM | -0.855 ± 0.78
31.6228 µM | 13.7 ± 0.66
100 µM | 64.6 ± 0.66

COc1ccc(O)c(C(C)(C)C)c1 [2-tert-Butyl-4-methoxyphenol]
Conditions | LDH release cytotoxicity [%]
0.03162 µM | -1.55 ± 0.4
0.1 µM | -1.18 ± 0.12
0.3162278 µM | 0.0233 ± 0.91
1 µM | 0.0291 ± 1.1
3.16228 µM | 0.0384 ± 1.3
10 µM | 0.94 ± 1.4
31.6228 µM | 1.15 ± 1.3
100 µM | 2.22 ± 1.8

O=C1C2(Cl)C3(Cl)C4(Cl)C(Cl)(Cl)C5(Cl)C3(Cl)C1(Cl)C5(Cl)C24Cl (stereo unspecified) [Kepone]
Conditions | LDH release cytotoxicity [%]
0.03162 µM | -0.309 ± 0.28
0.1 µM | 0.458 ± 0.64
0.3162278 µM | -0.526 ± 0.16
1 µM | -0.604 ± 0.8
3.16228 µM | -0.552 ± 0.22
10 µM | -0.815 ± 0.31
31.6228 µM | 8.06 ± 1.2
100 µM | 90.1 ± 3.4
